Reference: US20180215710A1, “METHODS FOR INHIBITING NATIVE AND PROMISCUOUS UPTAKE OF MONOAMINE NEUROTRANSMITTERS” (priority 2011, published 2018)
“Also recorded” adds a separate entry of the source.

Columns and labels:
[1] = test system: extracellular norepinephrine and dopamine in prefrontal cortex; conditions: Bymaster et al. 2002a; cited from earlier work
[2] = test system: patients with Major Depressive Disorder; experiment: Phase 2 six week double-blind placebo-controlled study in patients with Major Depressive Disorder; format: in vivo, human; conditions: for CGI-I in comparison to placebo (in words): MITT n=56, MMRM
Source text: Subjects were identified who were between the ages of 18-65 (inclusive), and met criteria for Major Depressive Disorder in accordance with the Diagnostic and Statistical manual of Mental Disorders-IV-TR and confirmed by the MINI International Neuropsychiatric Interview. […] They were also required to have a BMI≤35 and body weight>45 kg at the Screening Visit. […] Subjects were required to refrain from taking antidepressants, anticonvulsants including gabapentin and pregabalin, neuroleptics, MAO inhibitors, barbiturates, benzodiazepines, stimulants, antipsychotics, lithium, anxiolytics and beta blockers starting two weeks prior to the study and continuing until after the follow-up visit. Subjects were evaluated for safety parameters prior to and throughout the trial by a variety of measures including electrocardiogram, physical examination, vital signs and body weight, and clinical laboratory testing including a lipid panel, CBC with differential and urinalysis. […] Efficacy was determined by measuring the change from baseline in the Montgomery-Åsberg Depression Rating Scale (MADRS), the HAMD-17, the Clinical Global Impression Global Improvement Scale (CGI-1), the Clinical Global Impression-Severity scale (CGI-S) and the Derogatis Interview for Sexual Functioning Self-Report (DISF-SR). […] Comparisons between treatment groups based on MADRS (the primary efficacy parameter), […] and CGI-S scores were analyzed using a mixed-repeated measures (MMRM) analysis model including factors for Subject, Visit, Treatment Arm and Baseline value as a covariate. Adjusted least-squares means from these models are presented. Comparisons between groups were made at each post-baseline visit using model-based contrasts and adjusted degrees of freedom. For these analyses no explicit data imputations were made prior to the analysis. Response and remission categorical data were analyzed using chi-square tests. Inferential analyses of safety data were conducted with ANOVA models or chi-square tests. Two-tail alpha was set to 0.05. All analyses were conducted using SAS version 9.2.

[3] = biological target: T1, serotonin transporters (SERT) (Homo sapiens, UniProt P31645); experiment: Brain SERT occupancy by PET with [11C]DASB tracer, Phase 1 single-dose study; format: in vivo; conditions: N = 3
T1 construct: from tissue; host or cells: living human brain (3 healthy adult male volunteers), PET with [11C]DASB
T1 sequence (P31645 whole entry): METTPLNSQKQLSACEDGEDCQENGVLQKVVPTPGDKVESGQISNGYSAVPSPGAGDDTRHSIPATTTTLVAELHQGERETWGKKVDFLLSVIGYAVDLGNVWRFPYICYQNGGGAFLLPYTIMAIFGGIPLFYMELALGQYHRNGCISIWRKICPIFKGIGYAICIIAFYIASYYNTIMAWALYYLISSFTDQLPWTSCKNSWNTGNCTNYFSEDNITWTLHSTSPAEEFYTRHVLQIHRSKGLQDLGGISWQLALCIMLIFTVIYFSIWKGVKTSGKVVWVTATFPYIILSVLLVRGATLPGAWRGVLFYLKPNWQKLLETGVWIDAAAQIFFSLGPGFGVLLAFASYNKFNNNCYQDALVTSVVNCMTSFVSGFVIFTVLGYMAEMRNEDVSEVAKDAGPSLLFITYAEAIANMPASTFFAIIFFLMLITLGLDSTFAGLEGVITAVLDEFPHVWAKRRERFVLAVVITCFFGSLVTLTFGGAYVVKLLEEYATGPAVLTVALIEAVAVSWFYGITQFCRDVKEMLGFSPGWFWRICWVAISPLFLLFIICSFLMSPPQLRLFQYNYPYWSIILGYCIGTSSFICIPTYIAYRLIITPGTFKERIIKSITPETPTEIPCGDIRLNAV
Source text: This study was a Phase 1, single-dose, randomized, open-label study using positron emission tomography (PET) and [^11C]DASB ([^11C]N,N-dimethyl-2-(2-amino-4-cyanophenylthio) benzylamine) as a PET tracer in 3 healthy, young, adult male volunteer subjects. Using PET imaging, uptake inhibitor effects may be measured based on the proportion of SERT sites blocked in the brain.
(§1) PET scans were done at baseline and at 2 and 7-hour post-dose via measurement of [^11C]DASB tracer binding. Periodic blood samples were collected for evaluation of (+)-1-(3,4-dichlorophenyl)-3-azabicyclo[3.1.0]hexane PK. Safety was monitored by clinical and laboratory evaluations, including vital signs, physical examination, clinical chemistry, hematology, urinalysis, and ECG.

[4] = Plasma concentration in Phase 1 single-dose PET study; format: in vivo, human; conditions: ~7 h after single oral dose of 150 mg, N = 3
Source text: as §1

[5] = Safety monitoring in Phase 1 single-dose PET study; format: in vivo, human; conditions: single oral dose of 150 mg
Source text: as §1

[6] = 100 mg, Visit 8, LOCF, Completers, 50% reduction or more of baseline total score
[7] = six week double-blind, MITT n=56, MMRM LS means
[8] = ~2 h after single oral dose of 150 mg
[9] = ~7 h after single oral dose of 150 mg

CNCC[C@@H](Oc1ccccc1C)c1ccccc1 [atomoxetine]
extracellular norepinephrine and dopamine concentrations in prefrontal cortex [1]: increased extracellular norepinephrine and dopamine concentrations

Clc1ccc(C23CNCC2C3)cc1Cl (single isomer, unassigned; (+)) [(+)-1-(3,4-dichlorophenyl)-3-azabicyclo[3.1.0]hexane]
tolerability ([2]; 50 mg/day then 100 mg/day): relatively well tolerated | remission rates by CGI-S score of ≤2 compared to placebo (in words) ([2]; 100 mg, LOCF): significantly greater remission rates | Response rate HAMD-17 [2, 6]: (11/20) 55.00% | Response rate MADRS [2, 6]: (8/20) 40.00% | Remission rate CGI-S ([2]; 100 mg, Visit 8, LOCF, Completers, CGI-S ≤ 2): (7/20) 35.00% | Remission rate HAMD-17 ([2]; 100 mg, Visit 8, LOCF, Completers, HAMD-17 ≤ 7): (4/20) 20.00% | Remission rate MADRS ([2]; 100 mg, Visit 8, LOCF, Completers, MADRS ≤ 12): (6/20) 30.00% | anhedonia factor score of the MADRS compared to placebo (in words) ([2]; MITT n=56, MMRM LS means, listed as EB-1010): statistically significant improvement | Anhedonia factor difference placebo vs drug ([2]; Visit 8, MMRM, MITT): 1.41 | CGI-I difference placebo vs drug ([2]; Visit 8, MMRM, MITT): 0.62 | CGI-S difference placebo vs drug ([2]; Visit 8, MMRM, MITT): 0.22 | HAMD-17 difference placebo vs drug ([2]; Visit 8, MMRM, MITT): 3.12 | MADRS difference placebo vs drug ([2]; Visit 8, MMRM, MITT): 3.83 | Anhedonia factor (LS Mean − SE) ([2]; Visit 8, MMRM, MITT, n = 30): 7.92 (0.50) | CGI-I (LS Mean − SE) ([2]; Visit 8, MMRM, MITT, n = 30): 2.13 (0.20) | CGI-S (LS Mean − SE) ([2]; Visit 8, MMRM, MITT, n = 30): 3.31 (0.15) | HAMD-17 (LS Mean − SE) ([2]; Visit 8, MMRM, MITT, n = 30): 14.90 (1.40) | overall statistical effect size (Cohen's d), MADRS total score ([2]; Week 6, vs placebo): −0.63 | discontinuation due to AEs ([2]; compared with placebo): Two patients in each treatment group discontinued the study early due to AEs | heart rate, systolic or diastolic blood pressure compared to placebo ([2]; human, in vivo): did not result in significant increases | serious AEs ([2]; human, in vivo): no serious AEs were reported | weight gain ([2]; human, in vivo): not associated with significant weight gain | percentage of patients who reported an adverse treatment event ([2]; placebo 39.28%): 30.30% | CGI-I in comparison to placebo (in words) ([2]; six week double-blind): statistically significantly superior to placebo | CGI-S in comparison to placebo (in words) [2, 7]: improvement | HAM-D in comparison to placebo (in words) [2, 7]: decrease | MADRS total score in comparison to placebo (in words) [2, 7]: statistically significantly superior | MADRS total score in comparison to placebo (in words) ([2]; six week double-blind, MITT n=56, MMRM LS means, listed as EB-1010): decrease | CGI-I in comparison to placebo (in words) ([2]; six week double-blind, listed as EB-1010): decrease | efficacy in treating depression (in words) ([2]; titrated dose of 50 mg/day then 100 mg/day): effective for treatment of patients with MDD; also recorded: efficacious in treating depression | Mean SERT Occupancy, Mean [3, 8]: approximately 48% | Mean SERT Occupancy, Striatum [3, 8]: 48% | Mean SERT Occupancy, Thalamus [3, 8]: 48% | Mean SERT Occupancy, Striatum [3, 9]: 32% | Mean SERT Occupancy, Thalamus [3, 9]: 33% | Mean Plasma Concentration [4]: ~405 ng/mL | discontinuation due to a clinical or laboratory adverse experience [5]: no subjects were discontinued | laboratory safety tests [5]: no clinically meaningful changes | physical examinations and ECGs [5]: no clinically meaningful changes from pre-dose evaluations | vital sign measurements (blood pressure, pulse rate, respiratory rate, oral temperature) [5]: No dose-related changes | serious adverse events ([5]; 3 healthy male subjects): No serious adverse events were reported | total adverse events reported by one subject ([5]; rated definitely not related to study drug): 5
